Key:
[1] = biological target: human orexin 2 receptor (Homo sapiens (Human), UniProt O43614); experiment: Human orexin 2 receptor radioligand binding ([3H]-EMPA); details: averages of 2-20 runs, read-out: hOX2 Ki
Outline: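 Competition binding using homogenized HEK293 cells stably expressing human orexin 2 receptor, [3H]-EMPA at 2 nM final and ≤0.1% DMSO; nonspecific binding set with 10 μM almorexant. Filter-bound radioactivity counted by scintillation; one-site competition IC50 converted to Ki using pre-determined Kd, compounds run in triplicate.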

[2] = biological target: rat orexin 1 receptor (Rattus norvegicus, UniProt P56718); experiment: Rat orexin 1 receptor radioligand binding; details: rat orexin 1 receptor radioligand binding; averages of 2-20 runs; read-out: rOX1 Ki
Outline: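 Cell-suspension competition binding used 4 nM final tritiated thiazolyl-pyrrolidinyl-methanone radioligand in PBS, ≤0.1% DMSO, with 10 µM almorexant defining nonspecific binding. Filter-bound radioactivity was counted in triplicate. IC50 came from one-site competition fits and was converted to Ki using the predetermined Kd.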

[3] = biological target: human orexin 1 receptor (Homo sapiens, UniProt O43613); experiment: Human orexin 1 receptor radioligand binding; details: human orexin 1 receptor radioligand binding; averages of 2-20 runs; read-out: hOX1 Ki

human orexin 2 receptor, sequence (O43614 whole entry): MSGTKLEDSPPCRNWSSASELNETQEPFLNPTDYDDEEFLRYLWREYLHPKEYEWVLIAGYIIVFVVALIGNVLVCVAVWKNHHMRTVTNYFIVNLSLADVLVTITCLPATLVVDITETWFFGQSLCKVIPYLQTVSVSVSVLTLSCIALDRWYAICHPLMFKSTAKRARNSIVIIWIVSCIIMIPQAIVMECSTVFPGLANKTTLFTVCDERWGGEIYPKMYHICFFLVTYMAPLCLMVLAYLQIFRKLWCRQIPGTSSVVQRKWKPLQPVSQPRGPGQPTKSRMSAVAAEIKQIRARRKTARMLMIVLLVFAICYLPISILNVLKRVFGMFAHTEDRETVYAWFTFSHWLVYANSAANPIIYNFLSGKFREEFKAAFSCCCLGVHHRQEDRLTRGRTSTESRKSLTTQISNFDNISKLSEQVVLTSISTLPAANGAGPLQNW

Compound	Ki [1]	Ki [2]	Ki [3]
CCOc1ccc(C)nc1C(=O)N1CCC[C@@H](Oc2ccc(C(F)(F)F)cn2)[C@@H]1C [Example 219, (3-ethoxy-6-methylpyridin-2-yl)((2S,3R)-2-methyl-3-((5-(trifluoromethyl)pyridin-2-yl)oxy)piperidin-1-yl)methanone]	1300 nM	51 nM	55 nM
CCOc1ccc(C)nc1C(=O)N1CCC[C@@H](Nc2ncc(C(F)(F)F)cn2)[C@@H]1C (relative stereo) [Example 199, (3-ethoxy-6-methylpyridin-2-yl)((2S*,3R*)-2-methyl-3-((5-(trifluoromethyl)pyrimidin-2-yl)amino)piperidin-1-yl)methanone]	2400 nM	154 nM	206 nM
C[C@H]1[C@H](Oc2ccc(C(F)(F)F)cn2)CCCN1C(=O)c1ccccc1-c1ncc(F)cn1 [Example 141, (2-(5-fluoropyrimidin-2-yl)phenyl)((2S,3R)-2-methyl-3-((5-(trifluoromethyl)pyridin-2-yl)oxy)piperidin-1-yl)methanone]	676 nM	31 nM	22 nM
C[C@H]1[C@H](Oc2ccc(C(F)(F)F)cn2)CCCN1C(=O)c1ccccc1-c1ncccn1 [Example 143, ((2S,3R)-2-methyl-3-((5-(trifluoromethyl)pyridin-2-yl)oxy)piperidin-1-yl)(2-(pyrimidin-2-yl)phenyl)methanone]	473 nM	25 nM	15 nM
Cc1ccc(-c2ncccn2)c(C(=O)N2CCC[C@@H](Oc3ccc(C(F)(F)F)cn3)[C@@H]2C)n1 [Example 213, ((2S,3R)-2-methyl-3-((5-(trifluoromethyl)pyridin-2-yl)oxy)piperidin-1-yl)(6-methyl-3-(pyrimidin-2-yl)pyridin-2-yl)methanone]	217 nM	23 nM	68 nM
C[C@H]1[C@H](Oc2ncc(C(F)(F)F)cc2F)CCCN1C(=O)c1cccc(F)c1-n1nccn1 [Example 159, (3-fluoro-2-(2H-1,2,3-triazol-2-yl)phenyl)((2S,3R)-3-((3-fluoro-5-(trifluoromethyl)pyridin-2-yl)oxy)-2-methylpiperidin-1-yl)methanone]	1550 nM	60 nM	14 nM
Cc1cccc(C(=O)N2CCC[C@@H](Oc3cnc(C(F)(F)F)cn3)[C@@H]2C)c1-c1ncccn1 [Example 171, (3-methyl-2-(pyrimidin-2-yl)phenyl)((2S,3R)-2-methyl-3-((5-(trifluoromethyl)pyrazin-2-yl)oxy)piperidin-1-yl)methanone]	1100 nM	34 nM	29 nM
Cc1cccc(C(=O)N2CCC[C@@H](Oc3ncc(C(F)(F)F)cc3F)[C@@H]2C)c1-n1nccn1 [Example 158, ((2S,3R)-3-((3-fluoro-5-(trifluoromethyl)pyridin-2-yl)oxy)-2-methylpiperidin-1-yl)(3-methyl-2-(2H-1,2,3-triazol-2-yl)phenyl)methanone]	575 nM	36 nM	34 nM

Further lines, results first:

Ki [1]	Ki [2]	Ki [3]	Compound
4400 nM	59 nM	77 nM	C[C@H]1[C@H](Oc2ncc(C(F)(F)F)cn2)CCCN1C(=O)c1ccccc1-c1ncc(F)cn1 [Example 165, (2-(5-fluoropyrimidin-2-yl)phenyl)((2S,3R)-2-methyl-3-((5-(trifluoromethyl)pyrimidin-2-yl)oxy)piperidin-1-yl)methanone]
2800 nM	48 nM	49 nM	Cc1cccc(C(=O)N2CCC[C@@H](Oc3ncc(C(F)(F)F)cn3)[C@@H]2C)c1-c1ncc(F)cn1 [Example 170, (2-(5-fluoropyrimidin-2-yl)-3-methylphenyl)((2S,3R)-2-methyl-3-((5-(trifluoromethyl)pyrimidin-2-yl)oxy)piperidin-1-yl)methanone]
246 nM	12 nM	11 nM	C[C@H]1[C@H](Oc2ccc(C(F)(F)F)cn2)CCCN1C(=O)c1ccccc1-n1nccn1 [Example 110, (2-(2H-1,2,3-triazol-2-yl)phenyl)((2S,3R)-2-methyl-3-((5-(trifluoromethyl)pyridin-2-yl)oxy)piperidin-1-yl)methanone]
537 nM	35 nM	31 nM	Cc1cccc(C(=O)N2CCC[C@@H](Oc3ccc(C(F)(F)F)cn3)[C@@H]2C)c1-c1ncccn1 [Example 151, (3-methyl-2-(pyrimidin-2-yl)phenyl)((2S,3R)-2-methyl-3-((5-(trifluoromethyl)pyridin-2-yl)oxy)piperidin-1-yl)methanone]
915 nM	45 nM	132 nM	C[C@H]1[C@H](Oc2ccc(C(F)(F)F)cn2)CCCN1C(=O)c1c(F)cccc1-c1ncccn1 [Example 212, (2-fluoro-6-(pyrimidin-2-yl)phenyl)((2S,3R)-2-methyl-3-((5-(trifluoromethyl)pyridin-2-yl)oxy)piperidin-1-yl)methanone]
912 nM	44 nM	45 nM	C[C@H]1[C@H](Oc2cnc(C(F)(F)F)cn2)CCCN1C(=O)c1ccccc1-n1nccn1 [Example 106, (2-(2H-1,2,3-triazol-2-yl)phenyl)((2S,3R)-2-methyl-3-((5-(trifluoromethyl)pyrazin-2-yl)oxy)piperidin-1-yl)methanone]
421 nM	12 nM	9 nM	C[C@H]1[C@H](Nc2ccc(C(F)(F)F)cn2)CCCN1C(=O)c1ccc(F)cc1-c1ncccn1 (relative stereo) [Example 191, (4-fluoro-2-(pyrimidin-2-yl)phenyl)((2S*,3R*)-2-methyl-3-((5-(trifluoromethyl)pyridin-2-yl)amino)piperidin-1-yl)methanone]
> 10000 nM	32 nM	39 nM	Cc1ccc(C(=O)N2CCC[C@@H](Oc3ccc(C(F)(F)F)cn3)[C@@H]2C)c(-n2nccn2)n1 [Example 150, (6-methyl-2-(2H-1,2,3-triazol-2-yl)pyridin-3-yl)((2S,3R)-2-methyl-3-((5-(trifluoromethyl)pyridin-2-yl)oxy)piperidin-1-yl)methanone]
5600 nM	24 nM	18 nM	Cc1cnc(-n2nccn2)c(C(=O)N2CCC[C@@H](Oc3ccc(C(F)(F)F)cn3)[C@@H]2C)c1 [Example 149, (5-methyl-2-(2H-1,2,3-triazol-2-yl)pyridin-3-yl)((2S,3R)-2-methyl-3-((5-(trifluoromethyl)pyridin-2-yl)oxy)piperidin-1-yl)methanone]
